Substitutions are numbered along the chain they refer to.
Legend:
[1] = BIV lentiviral reporter vector without activator, eGFP expression by FACS in 293T cells; assay type: cell-based; details: reporter BIVC2H2FOSEGFP, activator none; 100 nM, forty-eight hours
Excerpt: One of the reporter constructs described above was introduced individually into 3×10^6 293T cells along with other components of the BIV four component packaging system (U.S. patent application of Luo et al. filed Feb. 4, 2002 entitled “Recombinant Bovine Immunodeficiency Virus Based Gene Transfer System” (Atty Docket No. 2048-127; serial number to be assigned) and Matukonis et al., (“Development of Second and Third Generation of Bovine Immunodeficiency Virus Based Gene Transfer Systems” Human Gene Therapy, in press (2002)) by CaPO4-mediated transient transfection. Eighteen hours post transfection, media were replaced with fresh DMEM containing 10% FBS and 200 mM butyric acid. Forty-eight hours later, conditioned media were collected from the transfected cells. Two mls of conditioned media from each transfection plus 2 mls of DMEM/FBS were added to 2×10^5 293T cells in individual wells of a six well tissue culture plate. In addition, 2 mls of conditioned media from either the pBIVC2H2FOSeGFP transfections were combined with 2 mls of conditioned media from the pBIVMNDC7 or pBIVMND2AS transfections and added to 2×10^5 293T cells. 8 μg/ml protamine sulfate were added to each transduction reaction. Four hours later, conditioned media was removed from the transduced cells and replaced with fresh DMEM/FBS. […]

[2] = molecular target: T1, Av3-H524G (Homo sapiens, UniProt P03372, H524G); assay: Transactivation on adenoviral (Av3)-delivered ER variant, luciferase in HeLa cells; assay type: cell-based; details: 100 nM test compound, 24 hrs (FIG. 5)
T1 construct: fragment B=ER amino acids 258-554; expressed in transfected cells; host or cells: HeLa cells transduced with Av3 or gutless adenoviral vector
T1 sequence (P03372 258-554 H524G): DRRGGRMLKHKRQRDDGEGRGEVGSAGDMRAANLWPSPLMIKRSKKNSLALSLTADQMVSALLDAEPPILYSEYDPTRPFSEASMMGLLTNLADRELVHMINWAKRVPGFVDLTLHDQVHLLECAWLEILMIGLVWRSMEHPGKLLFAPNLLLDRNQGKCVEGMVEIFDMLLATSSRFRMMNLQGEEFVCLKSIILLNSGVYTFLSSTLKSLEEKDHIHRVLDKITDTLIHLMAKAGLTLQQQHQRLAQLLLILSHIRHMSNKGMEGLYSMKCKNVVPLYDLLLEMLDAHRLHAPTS
Excerpt: Xu et al., Molecular Therapy, 3:262-273, 2000.

[3] = molecular target: T2, H524A mutant (Homo sapiens, UniProt P03372, H524A); assay: H524A mutant activation, cell-based reporter gene assay; details: 10 nM ligand
T2 construct: plasmids encoding the fusion proteins ER-LBD-C7LBDa and C7LBDb to substitute either alanine or glycine for histidine at residue 524; expressed in transfected cells
T2 sequence (P03372 311-547 H524A limits assumed): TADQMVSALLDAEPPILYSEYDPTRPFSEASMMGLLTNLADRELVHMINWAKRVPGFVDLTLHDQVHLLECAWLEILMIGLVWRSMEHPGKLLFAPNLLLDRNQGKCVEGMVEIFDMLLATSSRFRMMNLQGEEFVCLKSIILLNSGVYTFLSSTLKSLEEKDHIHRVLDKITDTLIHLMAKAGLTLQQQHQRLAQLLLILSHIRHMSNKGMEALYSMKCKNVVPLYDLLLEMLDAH
Procedure: (§1) In order to evaluate the ability of the fusion proteins C7LBD A, B, and the related LBD mutants to regulate transgene expression, a standard co-transfection reporter assay was performed. A reporter construct, henceforth known as 6×2C7pGL3Luc, containing six copies of a directly repeated C7 binding site (6×2C7) inserted upstream of an SV40 promoter fragment and reporter gene encoding firefly luciferase (pGL3Pro; Promega) was transfected along with the designated fusion protein and assayed as described below. Note the consensus C7 binding site is 5′-GCG TGG GCG-3′.
Cultured cells (HeLa, Cos, Hep3B or other) were seeded at 5×10^4 cells/well in a 24 well plate prior to the day of transfection in DMEM Phenol-free media, supplemented with L-glutamine and 5% (v/v) charcoal-dextran stripped Fetal Bovine serum (sFBS). Cells were transfected using the Qiagen Superfect Transfection method. For each well 1 μg of total DNA, containing 0.5 μg luciferase reporter plasmid (6×2C7pGL3Luc), 0.1 μg of chimeric activator DNA (e.g., C7LBDA, C7LBDB, or mutants thereof ), and 0.4 μg of an inert carrier plasmid DNA (p3Kpn), was mixed with 60 μL of DMEM phenol-free/serum free media, and 5 μL of Superfect reagent. In general, about 10 ng to about 0.5 μg of chimeric activator DNA was used for each well. […]

[4] = molecular target: T3, wild-type ER (Homo sapiens, UniProt P03372); assay: Inhibition of E2 activity on wild-type ER, COS-7 cells with pHEGO and ERE luciferase reporter; assay type: cell-based; details: IC50 ± STDEV, pHEGO and pERETkLuc, E2 (3 nM) + 0.1 to 1000 nM compound
T3 construct: expressed in transfected cells; host or cells: COS-7
T3 sequence (P03372 1-595): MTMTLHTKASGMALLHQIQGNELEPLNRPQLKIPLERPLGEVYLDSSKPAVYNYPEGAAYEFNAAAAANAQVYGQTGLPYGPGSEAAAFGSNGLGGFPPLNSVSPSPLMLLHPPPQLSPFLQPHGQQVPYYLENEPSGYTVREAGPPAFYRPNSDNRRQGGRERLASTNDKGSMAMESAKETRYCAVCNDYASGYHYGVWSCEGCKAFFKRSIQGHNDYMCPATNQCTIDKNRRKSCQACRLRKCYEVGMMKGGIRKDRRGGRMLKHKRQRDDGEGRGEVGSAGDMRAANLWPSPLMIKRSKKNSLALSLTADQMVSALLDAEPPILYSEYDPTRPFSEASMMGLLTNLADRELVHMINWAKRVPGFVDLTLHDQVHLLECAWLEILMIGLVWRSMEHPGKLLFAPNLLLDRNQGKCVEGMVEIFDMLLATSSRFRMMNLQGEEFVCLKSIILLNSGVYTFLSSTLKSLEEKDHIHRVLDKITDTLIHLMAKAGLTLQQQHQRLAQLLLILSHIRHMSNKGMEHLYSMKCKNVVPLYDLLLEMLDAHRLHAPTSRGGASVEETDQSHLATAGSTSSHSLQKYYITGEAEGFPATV
Procedure: For transfection, 0.5 microgram of pERE2tkluc reporter plasmid, 20 ng of pHEGO, and 0.5 microgram of pCIneo inert carrier DNA were combined with 60 microliter serum-free DMEM and 5 microliter Qiagen Superfect transfection reagent, vortexed for 10s, and set at room temperature for 10 min. Each sample was diluted with 350 microliters of steroid-free media, mixed, and added to each well. Following 2 hr 30 min incubation at 37° C., cells were washed once with Dulbecco's phosphate buffered saline (DPBS), and refed with steroid-free media. […] Approximately 24 hr after treatment, cells were washed once with DPBS, then 200 microliter of reporter lysis buffer was added per well and frozen at −80° C. Cells were thawed at room temperature on an orbital shaker for 1 hr 30 min. A 10 microliter aliquot of lysate was transferred to 96 well opaque plates, and relative luciferase units (RLU) determined on a luminometer using the appropriate firefly luciferase substrate.
Note that the nonspecific activity is a noncompetable element in the assay system.
In order to dissolve them completely, all the solutions were warmed in 55° C. or boiled water bath for 10 to 20 min before use. The DMSO in cell culture medium was maintained to 0.01% for all the drug concentration tested as well as the vehicle control.

[5] = molecular target: T4, ER-LBD H524G (Homo sapiens, UniProt P03372, H524G); assay: ER-LBD H524G transactivation, cell-based reporter gene assay
T4 construct: expressed in transfected cells
T4 sequence (P03372 311-547 H524G limits assumed): T2 sequence (P03372 311-547 H524A limits assumed) with A214G
Procedure: as §1
Cultured cells (HeLa, Cos, Hep3B or other) were seeded at 5×10^4 cells/well in a 24 well plate prior to the day of transfection in DMEM Phenol-free media, supplemented with L-glutamine and 5% (v/v) charcoal-dextran stripped Fetal Bovine serum (sFBS). Cells were transfected using the Qiagen Superfect Transfection method. For each well 1 μg of total DNA, containing 0.5 μg luciferase reporter plasmid (6×2C7pGL3Luc), 0.1 μg of chimeric activator DNA (e.g., C7LBDA, C7LBDB, or mutants thereof ), and 0.4 μg of an inert carrier plasmid DNA (p3Kpn), was mixed with 60 μL of DMEM phenol-free/serum free media, and 5 μL of Superfect reagent. In general, about 10 ng to about 0.5 μg of chimeric activator DNA was used for each well.
The mixture was vortexed for 10 seconds and incubated at room temperature for 10 minutes, followed by the addition of 350 μL of DMEM phenol-free 5% sFBS media. Cells were washed once with Dulbecco's phosphate buffered saline (DPBS) and the transfection mixture placed on the cells. Cells were washed once with DPBS following a 2.5 hour incubation at 37 degrees Celsius, and re-fed with DMEM Phenol-free 5% sFBS media.
Cells were treated 24 hours later by washing once with DPBS and adding 200 μL 1X reporter lysis buffer (Promega). Plates were frozen at -80° C. and on the day of assay thawed at room temperature for 1.5 hours on an orbital shaker at 100 RPM. After allowing for cellular debris to settle, lysate was transferred to a new tube, diluted 1:10 with 1X reporter lysis buffer and 10 μL transferred to 96 well opaque plates.
The sequence of the oligonucleotides used for the H524G modification were […] […] Mutated plasmids were isolated and their sequence confirmed.

[6] = molecular target: T5, 524G transcription factor (Homo sapiens, UniProt P03372, H524G); assay: In vitro inducible luciferase expression with gutless adenoviral transcription factor vector in Hela cells; assay type: cell-based
T5 construct: fragment B=ER amino acids 258-554; expressed in transfected cells; host or cells: HeLa cells transduced with Av3 or gutless adenoviral vector
T5 sequence (P03372 258-554 H524G): T1 sequence (P03372 258-554 H524G)

Compound | % Gated Cells [1] [%] | luciferase activity over the basal level [2] [times] | fold induction at 0.01 µM [3] | IC50 [4] [nM] | degree of induction of H524G as compared to estrogen ([5]; 10 nM) | fold induction at 0.01 µM ([5]; 10 nM ligand, H524G (FIG. 6)) | fold induction at 10 nM ([5]; 10 nM ligand, H524G (FIG. 6)) [fold] | EC50 ([5]; Table 3, read-out: EC50 ± STDEV) [nM] | Fold Induction ([6]; 100 nM ligand vs without ligand) [fold] | Luciferase Expression Levels (Relative Light Units) ([6]; (+) induced with 100 nM ligand, mean +/− standard error (n = 4))
4-hydroxytamoxifen [4-OHT] | 0.36 |  |  |  |  |  |  |  |  | 
C/C(=C(/c1ccc(O)cc1)c1ccc(OCCN(C)C)cc1)c1ccc(N2CCOCC2)cc1 [LBF580, 4-((1E)-1-{4-[2-(dimethylamino)ethoxy]phenyl}-2-(4-morpholin-4-ylphenyl)prop-1-enyl)phenol] |  | 16 | 4 | 253 | nine | 138 | 140 | ≤ 25 | 8 | 285695 +/− 2331 Relative Light Units

From US20030143559A1, “Novel estrogen receptor ligand binding domain variants and novel ligands and pharmaceutical compositions” (priority 2001, published 2003)
